Reference: patent US20020098148A1, “NON-STEROIDAL RADIOLABELED AGONIST/ANTAGONIST COMPOUNDS AND THEIR USE IN PROSTATE CANCER IMAGING” (priority 1997, published 2002)

Legend:
[1] = Cockshott et al. 1991; cited from earlier work
androgen receptor (AR) = target: T1, androgen receptor (AR) (Rattus norvegicus, UniProt P15207); experiment: AR competitive binding with 3H-mibolerone in cytosol
T1 construct: The minimum concentration of ^3H-MIB to saturate AR sites in the cytosol preparation was 1 nM; from tissue; host or cells: cytosol
T1 sequence (P15207 1-902): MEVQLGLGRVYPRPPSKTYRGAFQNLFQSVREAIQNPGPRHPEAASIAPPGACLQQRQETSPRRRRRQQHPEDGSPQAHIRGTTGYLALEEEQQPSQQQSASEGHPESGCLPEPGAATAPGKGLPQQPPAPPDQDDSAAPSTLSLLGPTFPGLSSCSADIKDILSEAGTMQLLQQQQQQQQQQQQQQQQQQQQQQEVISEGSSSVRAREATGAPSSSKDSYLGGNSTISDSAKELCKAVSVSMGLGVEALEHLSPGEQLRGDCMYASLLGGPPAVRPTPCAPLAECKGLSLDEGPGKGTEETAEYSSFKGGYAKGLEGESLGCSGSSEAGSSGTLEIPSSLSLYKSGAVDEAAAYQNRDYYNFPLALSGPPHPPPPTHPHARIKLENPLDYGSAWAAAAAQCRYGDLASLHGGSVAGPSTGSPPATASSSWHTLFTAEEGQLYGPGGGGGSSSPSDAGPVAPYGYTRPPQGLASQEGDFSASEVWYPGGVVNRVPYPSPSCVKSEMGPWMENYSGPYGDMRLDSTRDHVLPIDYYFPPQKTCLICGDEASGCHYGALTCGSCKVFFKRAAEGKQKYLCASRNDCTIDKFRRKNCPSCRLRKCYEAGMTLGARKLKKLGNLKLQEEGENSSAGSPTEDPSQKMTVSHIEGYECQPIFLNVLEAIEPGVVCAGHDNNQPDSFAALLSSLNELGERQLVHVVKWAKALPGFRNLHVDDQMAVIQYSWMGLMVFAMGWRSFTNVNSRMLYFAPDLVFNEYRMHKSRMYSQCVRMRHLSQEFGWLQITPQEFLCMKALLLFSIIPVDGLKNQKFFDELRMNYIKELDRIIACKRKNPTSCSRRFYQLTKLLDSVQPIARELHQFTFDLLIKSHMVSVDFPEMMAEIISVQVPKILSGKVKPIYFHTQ
Procedure: For the determination of non-specific binding, separate experiments were conducted by adding 1,000 nM MIB to the incubate. Unless otherwise indicated, all experiments were repeated three times or more. […] Radioactivity was counted in a liquid scintillation counter (Model LS6800, Beckman Instruments Inc., Palo Alto, Calif.).
To determine the Kd of MIB, data were analyzed using a modified form of the Scatchard equation:
where B was the concentration of specifically-bound ^3H-MIB in the incubate, F was the concentration of free ^3H-MIB in the incubate, and Bmax was the maximum concentration of ^3H-MIB specifically bound to AR, which is also the concentration of available AR binding sites in the incubate. […]
For competition binding experiments, competitive displacement curves were constructed for each ligand with percent specific binding (specific binding of ^3H-MIB at a particular ligand concentration expressed as a percentage of the specific binding of ^3H-MIB in the absence of ligand) on the vertical axis and ligand concentration on the horizontal axis. […]
where B0 is the specific binding of ^3H-MIB in the absence of ligand, and C is the ligand concentration. Binding affinities of the ligands were then compared using the equilibrium dissociation constant (Ki) of each ligand, as calculated using the equation below: […]

Row | SMILES | share of radioactivity in plasma accounted for by parent compound [1] | Ki (androgen receptor (AR)) [nM] | Ki value lower than that of R-Bicalutamide (androgen receptor (AR); R-isomer) [%]
1 | CC(O)(CS(=O)(=O)c1ccc(F)cc1)C(=O)Nc1ccc(C#N)c(C(F)(F)F)c1 (racemic) [racemic ^14C-labeled bicalutamide, bicalutamide] | virtually all of the radioactivity in plasma |  | 
2 | C[C@](O)(CS(=O)(=O)c1ccc(I)cc1)C(=O)Nc1ccc(C#N)c(C(F)(F)F)c1 [Compound 2] |  | 3.1 | 73
